Assay results taken from PMC11052316, “New Transferrin Receptor-Targeted Peptide–Doxorubicin Conjugates: Synthesis and In Vitro Antitumor Activity” (Molecules, 2024).
Read-outs that look alike come from different tables or passages of the source. Square brackets hold non-standard residues; d marks the D form. Peptide text beside a SMILES is read from it. * marks the point of attachment. X1 = COc1cccc2c1C(=O)c1c(O)c3c(c(O)c1C2=O)C[C@@](O)(C(=O)CO)C[C@@H]3O[C@H]1C[C@H](NC(=O)CCS*)[C@H](O)[C@H](C)O1

Columns and labels:
[1] = In vitro stability of conjugates in mouse serum; type: in vitro ADME; settings: 37 °C; for half-life at 100 µM: mouse serum (200 µL in 800 µL, diluted with water), 80 μL of 1 mM conjugate stock + 520 μL ultra-pure water + 200 μL mouse serum, methanol quench, centrifugation, intact PDC by HPLC (C18, 254 nm), mean ± SD, read-out: t1/2 of degradation in mouse serum (converted)
Description: The in vitro stability experiment of the conjugates was conducted by co-incubation with mouse serum, as previously described, with minor modifications. An 80 μL of ^LT7-SS-DOX or ^DT7-SS-DOX stock solution (1 mM) was diluted by adding ultra-pure water (520 μL) and mouse serum (200 μL). The mixture was incubated at 37 °C, aliquots (100 μL) were taken at scheduled time intervals, and then methanol (300 μL) was added to terminate the incubation. After centrifugation at 10,000 rpm for 10 min, the intact PDC that remained in the supernatant was analyzed by HPLC.

[2] = Reduction-triggered degradation / drug release by GSH; type: physicochemical; settings: 37 °C; for remaining at 1 h, 100 µM: read-out: conjugate remained undegraded; for t1/2 of degradation in 5 mM GSH: intact conjugate by HPLC, mean ± SD
Description: A stock solution of ^LT7-SS-DOX or ^DT7-SS-DOX was diluted by adding 5 mM or 5 μM GSH dissolved in acetonitrile-PBS (3:7, v/v) to a final volume of 800 μL with 100 μM conjugate, and the mixture was incubated at 37 °C. Aliquots (100 μL) were taken from the incubation solution at scheduled time intervals and diluted with acetonitrile–PBS (3:7, v/v, 200 μL). After filtration, the intact conjugate that remained in the sample was analyzed by HPLC.

A549 cells [3] = test: In vitro cytotoxicity, CCK-8 assay; type: cell-based, human; settings: for cell viability: 48 h, CCK-8
Description: (§1) Human HepG2 hepatocellular carcinoma cells and human U87 glioblastoma cells were purchased from Procell Life Science & Technology Co., Ltd. (Wuhan, China), human A549 lung carcinoma cells were obtained from the School of Basic Medical Sciences, Chengde Medical University, human LO2 normal hepatic cells were purchased from Jennio Biotech Co., Ltd. (Guangzhou, China). The cells were cultured in DMEM (HepG2), MEM containing 1% non-essential amino acids (U87), and RPMI-1640 (A549 and LO2), supplemented with 10% fetal bovine serum (FBS) and 1% penicillin/streptomycin at 37 °C in a humidified atmosphere with 5% CO2.
(§2) A549, HepG2, U87, and LO2 cells were each seeded in 96-well cell culture plates at a density of 6 × 10^3 cells per well and incubated at 37 °C for 24 h. Then, cells were treated with serial concentrations of free DOX or the peptide–DOX conjugates for 48 h. After incubation, CCK-8 (10 μL) was added to each well and incubated for an additional 2 h. The absorbance of each well was measured at 450 nm with a reference wavelength of 630 nm by using a Multiskan GO microplate reader (Thermo Fisher Scientific, Waltham, MA, USA). Data for each cell line treated with free DOX or PDCs were obtained from three independent experiments.

HepG2 cells [4] = test: In vitro cytotoxicity, CCK-8 assay; type: cell-based, human; settings: for cell viability: 48 h, CCK-8
Description: as §1, §2

U87 cells [5] = test: In vitro cytotoxicity, CCK-8 assay; type: cell-based, human; settings: for cell viability: 48 h, CCK-8; for IC50: U87, 48 h, CCK-8, mean ± SD (n = 3)
Description: as §1, §2

LO2 cells [6] = test: In vitro cytotoxicity, CCK-8 assay; type: cell-based, human; settings: LO2, 48 h, CCK-8, mean ± SD (n = 3)
Description: as §1, §2

A549 cells [7] = test: Confocal microscopy analysis of cellular uptake; type: cell-based, human
Description: (§3) A549, HepG2, U87, or LO2 cells were seeded on glass coverslips (5 × 10^4 cells/well) in 24-well cell culture plates and incubated at 37 °C for 24 h. Then, cells were treated with the peptide–DOX conjugates (equivalent DOX concentration of 10 μM) for 4 and 12 h, respectively. Cells treated with free DOX (10 μM) for 4 h were used as the positive control. After the drugs in each well were discarded, cells were washed three times with PBS and fixed with 4% paraformaldehyde for 12 h. Cell nuclei were stained with DAPI for 8 min. The fluorescent images of cells were observed by using a confocal laser scanning microscope (Olympas FV3000).
(§4) After removal of the peptide solution, cells were washed three times with PBS and incubated with the ^DT7-SS-DOX conjugate (equivalent DOX concentration of 10 μM) for 4 h. Cell fixation, staining, and cellular uptake analysis by confocal microscopy were conducted as aforementioned methods.

HepG2 cells [8] = test: Confocal microscopy analysis of cellular uptake; type: cell-based, human
Description: as §3, §4

U87 cells [9] = test: Confocal microscopy analysis of cellular uptake; type: cell-based, human
Description: as §3, §4

LO2 cells [10] = test: Confocal microscopy analysis of cellular uptake; type: cell-based, human; settings: LO2, 10 μM, 4 h, confocal laser scanning microscopy
Description: as §3

[11] = 5 mM GSH in acetonitrile-PBS (3:7, v/v), 100 μM conjugate, 1 h, HPLC, n = 3
[12] = 5 mM GSH in acetonitrile-PBS (3:7, v/v), 100 μM conjugate, n = 3

With CC[C@H](C)[C@H](NC(=O)[C@H](C)NC(=O)[C@H](Cc1c[nH]cn1)NC(=O)[C@@H](N)CSSCCC(=O)N[C@H]1C[C@H](O[C@H]2C[C@](O)(C(=O)CO)Cc3c(O)c4c(c(O)c32)C(=O)c2c(OC)cccc2C4=O)O[C@@H](C)[C@H]1O)C(=O)N[C@@H](Cc1ccc(O)cc1)C(=O)N1CCC[C@H]1C(=O)N[C@@H](CCCNC(=N)N)C(=O)N[C@@H](Cc1c[nH]cn1)C(=O)O [^LT7-SS-DOX] the “intact conjugate in mouse serum at 1 h” value ([1]; 80 μL of 1 mM stock + 520 μL water + 200 μL mouse serum, 1 h, HPLC) was “almost entirely degraded”, the half-life at 100 µM [1] was 0.37 ± 0.02 h and the remaining at 1 h, 100 µM ([2]; 5 μM GSH in acetonitrile-PBS (3:7, v/v), 100 μM conjugate, 1 h, HPLC, n = 3) was 93.7%. For the same compound, the conjugate remained undegraded [2, 11] was “completely degraded”, the “t1/2 of degradation in 5 mM GSH” value [2, 12] was 0.26 ± 0.01 h and the cell viability (A549 cells [3]; A549, equal DOX concentration of 20 µM) was 83.2%. It also gave a cell viability (A549 cells [3]; A549, equal DOX concentration of 40 µM) of 67.2%, a cell viability (HepG2 cells [4]; HepG2, equal DOX concentration of 20 µM) of 73.1% and a cell viability (HepG2 cells [4]; HepG2, equal DOX concentration of 40 µM) of 61.5%. The cell viability (U87 cells [5]; U87, equal DOX concentration of 20 µM) was 95.1% and the cell viability (U87 cells [5]; U87, equal DOX concentration of 40 µM) was 41.0%.

With CC[C@@H](C)[C@@H](NC(=O)[C@@H](Cc1ccc(O)cc1)NC(=O)[C@H]1CCCN1C(=O)[C@@H](CCCNC(=N)N)NC(=O)[C@H](N)Cc1c[nH]cn1)C(=O)N[C@H](C)C(=O)N[C@H](Cc1c[nH]cn1)C(=O)N[C@H](CSSCCC(=O)N[C@H]1C[C@H](O[C@H]2C[C@](O)(C(=O)CO)Cc3c(O)c4c(c(O)c32)C(=O)c2c(OC)cccc2C4=O)O[C@@H](C)[C@H]1O)C(=O)O [^DT7-SS-DOX] (H-[dH][dR][dP][dY][dI][dA][dH][dC](X1)-OH) the half-life at 100 µM [1] was 8.58 ± 0.85 h, the remaining at 1 h, 100 µM [2, 11] was 72.1% and the “t1/2 of degradation in 5 mM GSH” value [2, 12] was 1.93 ± 0.13 h. For the same compound, the “t1/2 in 5 mM GSH, times longer than that of ^LT7-SS-DOX” value ([2]; 5 mM GSH) was ~8 times, the IC50 (A549 cells [3]; A549, 48 h, CCK-8, mean ± SD (n = 3)) was 20.6 ± 4.81 µM and the IC50 (HepG2 cells [4]; HepG2, 48 h, CCK-8, mean ± SD (n = 3)) was 7.01 ± 1.64 µM. For the same compound, the IC50 (LO2 cells [6]) was > 100 µM, the IC50 (U87 cells [5]) was 5.7 ± 0.22 µM and the “fluorescence intensity after pre-treatment with TfR affinity peptide versus without (TfR competitive inhibition assay)” value (A549 cells [7]; A549, pre-treated with TfR affinity peptide 100 μM 8 h, then conjugate at equivalent DOX 10 μM for 4 h) was “lower”. For the same compound, the “fluorescence intensity after pre-treatment with TfR affinity peptide versus without (TfR competitive inhibition assay)” value (HepG2 cells [8]; HepG2, pre-treated with TfR affinity peptide 100 μM 8 h, then conjugate at equivalent DOX 10 μM for 4 h) was “lower” and the “fluorescence intensity after pre-treatment with TfR affinity peptide versus without (TfR competitive inhibition assay)” value (U87 cells [9]; U87, pre-treated with TfR affinity peptide 100 μM 8 h, then conjugate at equivalent DOX 10 μM for 4 h) was “lower”.

In the case of COc1cccc2c1C(=O)c1c(O)c3c(c(O)c1C2=O)C[C@@](O)(C(=O)CO)C[C@@H]3O[C@H]1C[C@H](N)[C@H](O)[C@H](C)O1 [DOX, Doxorubicin], the IC50 (LO2 cells [6]) is reported as 1.29 ± 0.18 µM, the IC50 (U87 cells [5]) is reported as 1.65 ± 0.2 µM and the “location of red (DOX) fluorescence in cells” value (shortened to “location of red”) (A549 cells [7]; A549, 10 μM, 4 h, confocal laser scanning microscopy) is reported as “located in the cell nuclei”. The “location of red” value (HepG2 cells [8]; HepG2, 10 μM, 4 h, confocal laser scanning microscopy) was “located in the cell nuclei”, the “location of red” value (U87 cells [9]; U87, 10 μM, 4 h, confocal laser scanning microscopy) was “located in the cell nuclei” and the “location of red” value (LO2 cells [10]) was “located in the cell nuclei”.
